# Laboratory results taken from patent publication US8323971B2, “Differentiation of pluripotent cells into primary germ layer progenitors” (Cambridge Enterprise Limited, priority 2006, dated 2012).
# B1: Activin: dimeric polypeptide stimulating the Activin/Nodal pathway (protein, UniProt P08476 311-426, looked up)
# Inhibin beta A chain: GLECDGKVNICCKKQFFVSFKDIGWNDWIIAPSGYHANYCEGECPSHIAGTSGSSLSFHSTVINHYRMRGHSPFANLKSCCVPTKLRPMSMLYYDDGQNIIKKDIQNMIVEECGCS
# modifications: Inhibin beta A chain
# B2: Noggin: the BMP inhibitor Noggin (protein, UniProt Q13253 28-232, looked up)
# Noggin: QHYLHIRPAPSDNLPLVDLIEHPDPIFDPKEKDLNETLLRSLLGGHYDPGFMATSPPEDRPGGGGGAAGGAEDLAELDQLLRQRPSGAMPSEIKGLEFSEGLAQGKKQRLSKKLRRKLQMWLWSQTFCPVLYAWNDLGSRFWPRYVKVGSCFSKRSCSVPEGMVCKPSKSVHLTVLRWRCQRRGGQRCGWIPIQYPIISECKCSC
# Key:
# Assay type in all cases: cell-based, human
# [1] = system: hESCs; assay: Quantitation of β-tubulin III positive cells in monolayer differentiation; settings: Lefty expressing hESCs, feeder free monolayer, CDM; FGF 12 ng/ml, Noggin 200 ng/ml, SU5402 20 μM
# Method: In some experiments, Wildtype and Lefty expressing hESCs were grown on fibronectin in FGF (12 ng/ml)/Activin (20 ng/ml) as a monolayer in the absence of a feeder layer (Vallier et al., 2005). When cells were 70-80% confluent medium was changed to either CDM only, CDM/FGF (12 ng/ml), CDM/Noggin 200 ng/ml, CDM/SU5402 and differentiated for 24 days.
# To quantify the neurogenic potential of Lefty expressing hESCs, we cultured Lefty expressing hESCs in feeder-free conditions as a monolayer in CDM supplemented with Activin and FGF as described previously (Vallier et al., 2005). When cells reached 70-80% confluency, medium was changed to CDM only, CDM plus FGF (12 ng/ml) (CDM/FGF), CDM plus the BMP inhibitor Noggin (200 ng/ml) ([…]) (CDM/SU5402), and cells were cultured in these conditions for 24 days
# The incidence of neural differentiation was determined by counting the number of β-tubulin III positive cells in random fields.
# [2] = system: H9 hESCs; assay: Screening of culture conditions by immunostaining for Oct4, Sox2, Brachyury, Sox17; settings: for rescue of Oct4 expression under SB431542: added with SB431542
# Method: Table 2 and Table 3 show the screening of culture conditions for inducing mesoendoderm differentiation into CDM. H9 hESCs were grown for 7 days or more in CDM-BSA or CDM-PVA supplemented with different growth factors (Activin, BMP4, FGF2) or inhibitors (SU5402 for FGF, SB431542 for Activin/Nodal/TGFβ, BIO for βCatenin). Then, immunostaining analysis were used to determine the fractions of cells expressing the pluripotent marker Oct-4, neuroectoderm marker Sox2, the mesoderm marker Brachyury, and the endoderm marker Sox17. The quantities of expressing cells were divided into five arbitrary categories. 0 for absence of expression, VL for expressing cells <1%, L for expressing cells <5%, H for expressing cells >10%, VH for expressing cells >50%. IN red are indicated the conditions allowing the generation of mesendoderm cells expressing Brachyury or Sox17.
# HESCs or differentiated progenitors were fixed for 20 minutes at 4° C. in 4% paraformaldehyde (PFA) and then washed three times in PBS. Cells were incubated for 20 minutes at room temperature in PBS containing 10% goat serum (Serotec) and subsequently incubated over night at 4° C. with primary antibody diluted in 1% goat serum in PBS as follows: SSEA-3 (1:100, Santa Cruz), SSAE-1 (1:25), Tra-1-60 (1:100, Santa CruZ), Oct-4 (1:100, Abcam ab18976 or SantaCruz), Sox2 (1:100, Abcam ab15830), Alkaline Phophatase (1:50, Abcam ab17989), Brachyury (1:100, Abcam ab20680 or RandD systems), Sox17 (RandD systems), FoxA2 (1:50, Abcam ab5074), GATA4 (1:250, Santa CruZ), GATA6 (1:200, Abcam ab22600 or Santa Cruz), Vent-2 (1:100, Abcam ab20913), Goosecoid (1:25, Abcam ab21059), Wnt3A (1:100, Abcam ab19925), CXCR4 (1:100, RanD Systems or Pharmingen). Nestin (1:200, Abcam ab5968), NCAM (1:100, Abcam ab8077), GFAP (ZZ), Neurofilament (ZZ), βIII Tubulin (ZZ), Glutamate (ZZ), N-Cadherin (1:100, Abcam ab18203 or ZZ). Cells were then washed three times in PBS and incubated with fluorescein-Isothiocyanate-conjugated anti-mouse IgG or IgM (Sigma 1:200 in 1% goat serum in PBS) or rat IgM (Jackson laboratory 1:300 in goat serum in PBS) or rabbit IgG (Jackson laboratory 1:200 in donkey serum in PBS) for two hours at room temperature. Unbound secondary antibody was removed by 3 washes in PBS. Hoechst 33258 was added to the first wash (Sigma 1:10000).
# We then developed a method for inducing differentiation of hESCs into the three primary germ layers. Culture conditions inductive for mesoderm, endoderm and neuroectoderm were screened using an approach based on immunostaining analyses for the expression of proteins specifically expressed by pluripotent cells (Oct-4), neuroectoderm progenitors (Sox2 in absence of Oct4), endoderm progenitors (Sox17) and mesoderm progenitors (Brachyury). In summary, hESCs grown in CDM (CDM-BSA or hu-CDM) were plated on fibronectin in CDM-BSA/AF or CDM-PVA/AF. Then cocktails of growth factors (BMP4, FGF2, Activin) or chemical inhibitors (SU5402, SB431542) were added at different times and for different periods. After 7 to 10 days treatment, cells were fixed and then the expression of Oct-4/Sox2, Sox17 and Brachyury was analysed using immunostaining. The effect of three growth factors on the differentiation of hESCs into the primary germ layers was systematically analysed in our screen. We also studied the function of FGF and Activin signalling pathways in the maintenance of the pluripotent state by analysing the effect of the SU5402, a chemical inhibitor of FGF receptors, and the SB431542, a chemical inhibitor of Activin/TGFβ receptors.
# [3] = system: hESC derived EBs; assay: Real time qPCR / RT-PCR of neuroectoderm and pluripotency markers in EBs
# Method: Four independent batches of WT and Lefty EBs were used for this analysis.
# Five independent batches of DMSO- and SB431542-treated EBs were used for this analysis.
# Lefty or Cerb-S expressing hESCs (as well as wildtype H9 and hSF-6 hESCs) were grown in 6 cm dishes (Corning), on mouse feeders. When confluent, hESCs were passaged using collagenase 1 mg/ml, as previously described (Schatten et al., 2005) and cultured in non-adherent conditions in CDM supplemented with either SU5402 (Calbiochem; 10 μM), SB431542 (Tocris; 20 μM), FGF-2 (R&D Systems; 12 ng/ml) or Noggin 200 ng/ml.
# For some RT-PCR experiments, 50-100 ng of RNA were used for each RT-PCR reaction, using the OneStep RT-PCR kit according to manufacturer instructions. For real-time PCR, 1 μg RNA was reverse-transcribed using the Qiagen QuantiTect Reverse Transcription kit. 1/20-1/40 of each cDNA reaction was used for each real-time PCR reaction using the QuantiTect SYBR Green PCR Kit (Qiagen) according to manufacturer instructions. Relative quantification of gene expression was done by normalising the detected levels of gene of interest mRNA to those of the house-keeping GAPDH gene. All primers were purchased from Qiagen, with the exception of Xenopus Cerb-S: Forward 5′-[…]-3′ (SEQ ID NO: 1); Reverse 5′-ATGGTGCAGGGTAG TAGATG-3′ (SEQ ID NO: 2). Mouse Lefty2: Forward 5^r-[…]-3′ (SEQ ID NO: 3); Reverse 5′-[…]-3′ (SEQ ID NO: 4).
# [4] = system: hESCs; assay: FACs fraction of cells expressing CXCR4 or PDGFR after mesendoderm induction in CDM PVA; settings: Activin 100 ng/ml at third step with BMP4 and FGF2, CDM-PVA
# Method: Fraction of cells expressing CXCR4 or PDGFa was determined using FACs after the third day in CDM+BMP+FGF+Activin.
# hESCs grown in Feeder free and serum free conditions were harvested using 5 mg/ml collagenase IV then plated into plates pre-coated with fibronectin. hESCs were grown for 48 hours in CDM supplemented with Activin (10 ng/ml, RandD systems) and FGF2 (12 ng/ml, RandD systems). To induce extra-embryonic differentiation, hESCs were grown for 5 additional days in CDM supplemented with BMP4 (10 ng/ml, RandD systems). To obtain neuroectoderm progenitors, hESCs were grown in CDM or in CDM-PVA in the presence of SB431542 (10 μM Tocris) and FGF2 (12 ng/ml, RandD systems) for 7 additional days. The resulting cells were grown in non-adherent conditions for 10 days and then plated back for 5 additional days in CDM to obtain fully differentiated neuronal cells. To obtain mesendoderm precursors, hESCs were grown for 3 additional days in CDM-PVA in the presence of SU5402 (10 μM, Calbiochem) and Activin (5 ng/ml, RandD systems). […]
# For detection of Tra-1-60, SSEA-3, N-CAM, CXCR4 and PDGFαRecptor adherent cells were washed twice in PBS then incubated for 20 minutes at 37 C in cell dissociation buffer (Invitrogen). […] Live cells identified by 7-AAD exclusion were analyzed for surface-marker expression using FACSCalibur.
molecule,measurement,setting,value
"Cc1c[nH]c(C=C2C(=O)Nc3ccccc32)c1CCC(=O)O [SU5402, 3-[3-(2-Carboxyethyl)-4-methylpyrrol-2-methylidenyl]-2-indolinone, reference compound]",number of β-tubulin III positive cells compared to controls,[1],significant reduction
FGF2: human fibroblast growth factor 2,rescue of Oct4 expression under SB431542,[2],not sufficient to rescue the expression of Oct4
same,number of β-tubulin III positive cells compared to controls,[1],did not show a significant increase
"O=C1Nc2cc(Br)ccc2/C1=C1/Nc2ccccc2/C1=N\O [BIO, reference compound]",rescue of Oct4 expression under SB431542,[2],not sufficient to rescue the expression of Oct4
"NC(=O)c1ccc(-c2nc(-c3ccc4c(c3)OCO4)c(-c3ccccn3)[nH]2)cc1 [SB431542, 4-(5-Benzol[1,3]dioxol-5-yl-4-pyrldin-2-yl-1H-imidazol-2-yl)-benzamide hydrate]","cells expressing the mesendoderm markers Bra, Sox17, FoxA2, and αFP",[2]; in the presence of SB431542,never observed
same,"Nestin, Sox3, and NGN2 expression (real time qPCR)","[3]; 20 μM, EBs cultured 14-16 days, vs DMSO",average increase
same,pluripotency marker Oct4 (RT-PCR time course),"[3]; EBs harvested every 4 days over 16 days, compared to controls",rapid down-regulation
same,Sox1 expression levels (real time qPCR),"[3]; EBs in CDM 14-16 days, vs DMSO",not a significant increase
B1,fraction of cells expressing CXCR4,[4],70%
same,fraction of cells expressing PDGFR,[4],7%
same,"expression of neuroectoderm markers Sox1, Sox3, Nestin and NGN2",[3]; addition to EB cultures,decreasing expression
B2,number of β-tubulin III positive cells compared to controls,[1],significant increase
